Consider 19 compounds from ChEMBL document CHEMBL4261659, “Synthesis and biological evaluation of novel N-substituted nipecotic acid derivatives with a trans-alkene spacer as potent GABA uptake inhibitors” (Bioorg Med Chem, 2018).

For assay [1], the target named is T1, GABA transporter 4 (Mus musculus) (UniProt P31650).
T1 sequence (whole entry): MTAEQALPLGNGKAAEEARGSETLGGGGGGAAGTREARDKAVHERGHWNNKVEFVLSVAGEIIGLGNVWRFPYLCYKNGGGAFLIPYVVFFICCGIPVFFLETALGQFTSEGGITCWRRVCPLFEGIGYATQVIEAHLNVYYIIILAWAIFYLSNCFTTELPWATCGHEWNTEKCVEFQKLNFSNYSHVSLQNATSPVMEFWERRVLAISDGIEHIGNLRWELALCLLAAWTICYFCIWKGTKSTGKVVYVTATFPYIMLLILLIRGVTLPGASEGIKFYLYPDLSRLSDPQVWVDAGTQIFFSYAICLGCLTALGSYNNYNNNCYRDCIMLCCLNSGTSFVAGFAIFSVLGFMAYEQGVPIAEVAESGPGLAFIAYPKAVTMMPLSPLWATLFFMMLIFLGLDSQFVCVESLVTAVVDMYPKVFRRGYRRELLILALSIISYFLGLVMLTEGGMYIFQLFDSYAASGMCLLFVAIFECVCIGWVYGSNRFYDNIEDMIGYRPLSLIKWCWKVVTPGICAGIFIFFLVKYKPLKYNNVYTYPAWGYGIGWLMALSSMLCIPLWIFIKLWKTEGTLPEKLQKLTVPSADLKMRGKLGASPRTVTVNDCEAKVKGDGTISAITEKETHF
Description: Inhibition of mouse GAT4 expressed in HEK293 cells assessed as remaining [3H]GABA uptake at 100 uM preincubated for 25 mins followed by [3H]GABA addition and measured after 4 mins by liquid scintillation counting method. The assay is classed as cell-based.

The target of assay [2] is T2, Sodium- and chloride-dependent GABA transporter 1 (Mus musculus, UniProt P31648). Description: Displacement of NO711 from mouse GAT1 expressed in stable HEK293 cells preincubated for 10 mins followed by NO711 addition and measured after 40 mins by LC-ESI-MS/MS analysis. Format: cell-based.
Assay [3] deals with Betaine/GABA transporter BGT1 (Mus musculus). In words: Inhibition of mouse GAT2 expressed in HEK293 cells assessed as remaining [3H]GABA uptake at 100 uM preincubated for 25 mins followed by [3H]GABA addition and measured after 4 mins by liquid scintillation counting method.
Assay [4] deals with GABA transporter 3 (Mus musculus). In words: Inhibition of mouse GAT3 expressed in HEK293 cells assessed as remaining [3H]GABA uptake at 100 uM preincubated for 25 mins followed by [3H]GABA addition and measured after 4 mins by liquid scintillation counting method.
The target in assay [5] is T2, Sodium- and chloride-dependent GABA transporter 1. Description: Inhibition of mouse GAT1 expressed in HEK293 cells assessed as reduction in [3H]GABA uptake preincubated for 25 mins followed by [3H]GABA addition and measured after 4 mins by liquid scintillation counting method. The assay is classed as cell-based.
For another assay, the target named is T3, GABA transporter 4 (Mus musculus, UniProt P31650).
T3 sequence (P31650 whole entry): T1 sequence (whole entry)
Description: Inhibition of mouse GAT4 expressed in HEK293 cells assessed as reduction in [3H]GABA uptake preincubated for 25 mins followed by [3H]GABA addition and measured after 4 mins by liquid scintillation counting method. The assay is classed as cell-based.

In assay [6] the target is Sodium- and chloride-dependent GABA transporter 1 (Mus musculus) (UniProt P31648). In words: Displacement of NO711 from mouse GAT1 expressed in stable HEK293 cells assessed as remaining specific NO711 binding level preincubated at 100 uM for 10 mins followed by NO711 addition and measured after 40 mins by LC-ESI-MS/MS analysis. The assay is classed as cell-based.
For assay [7] the target is unchanged. In words: Inhibition of mouse GAT1 expressed in HEK293 cells assessed as remaining [3H]GABA uptake at 100 uM preincubated for 25 mins followed by [3H]GABA addition and measured after 4 mins by liquid scintillation counting method. Format: cell-based.

As usually defined, the Ki is a measure of affinity in units of concentration, obtained from inhibition or displacement. The low end stands for tighter binding, the high end for weaker binding. What is called IC50 is the midpoint of a concentration-inhibition curve. Regarding `COc1ccc(C(C/C=C/CN2CCCC(C(=O)O)C2)c2ccc(OC)cc2)cc1` (racemic), the Activity in assay [1] stood at 84%; in assay [3], 96%; in assay [4], 71%. This compound gave a Ki in assay [2] of 3.24 µM. The IC50 in assay [5] is 13.5 µM.

Turning to `Cc1ccc(C(/C=C/CN2CCCC(C(=O)O)C2)(c2ccc(C)cc2)c2ccc(C)cc2)cc1` (racemic), affinity in assay [2] was put at a Ki of 5.5 µM. For the same compound, the results for the 50% inhibitory concentration (IC50) (in assay [5]; at GABA transporter 4) were 20.4 µM and 10.7 µM, respectively.

In assay [2], `COc1ccc(C(/C=C/CN2CCCC(C(=O)O)C2)c2ccc(OC)cc2)cc1` (racemic) had a Ki of 3.72 µM. Besides, the Activity in assay [3] was 51%. The IC50 in assay [5] is 14.1 µM; at GABA transporter 4 it was 31.6 µM.

Take `O=C(O)C1CCCN(C/C=C/CC(c2ccccc2)c2ccccc2)C1` (racemic): the Activity in assay [1] is 82%; in assay [3], 96%; in assay [4], 69%. For the same compound, affinity in assay [2] was put at a Ki of 0.0309 µM. In addition, the IC50 in assay [5] was 0.166 µM.

Turning to `COc1ccc(C(O)(/C=C/CN2CCCC(C(=O)O)C2)c2ccc(OC)cc2)cc1` (racemic), the Activity was determined as 69% in assay [3], 66% in assay [4] and 54% in assay [6]. The results for the IC50 (in assay [5]; at GABA transporter 4) were 70.8 µM and 44.7 µM, respectively.

Consider `COc1ccc(CC(/C=C/CN2CCCC(C(=O)O)C2)(c2ccc(OC)cc2)c2ccc(OC)cc2)cc1` (racemic), for which, in assay [2], the Ki was 3.09 µM. For the same compound, the values for the Activity in assay [3] and in assay [4] were 60% and 53%, respectively. In addition, the values for the IC50 (in assay [5]; on GABA transporter 4) were 11.2 µM and 66.1 µM, respectively.

`COc1ccc(C(/C=C/CN2CCCC(C(=O)O)C2)(c2ccc(OC)cc2)c2nccn2C)cc1` (racemic): the Activity turned out to be 83% in assay [1]; 72% in assay [3]; 70% in assay [7]; 83% in assay [4]; 62% in assay [6].

As for `O=C(O)C1CCCN(C/C=C/C(c2ccccc2)(c2ccccc2)c2ccccc2)C1` (racemic), the Activity amounted to 89% in assay [1], 108% in assay [3] and 103% in assay [4]. The compound further gave a Ki in assay [2] of 8.32 µM. Further, the IC50 in assay [5] was 40.7 µM.

`O=C(O)C1CCCN(C/C=C/CC(c2ccccc2)(c2ccccc2)c2ccccc2)C1` (racemic): the Ki in assay [2] was 9.77 µM. The Activity was 55% in assay [3] and 56% in assay [4]. Further, the IC50 in assay [5] is 21.4 µM; on GABA transporter 4, 74.1 µM.

`COc1ccc(C(/C=C/CN2CCCC(C(=O)O)C2)(c2ccc(OC)cc2)c2ccc3sccc3c2)cc1` (racemic) had a Ki in assay [2] of 3.31 µM. Moreover, the values for the IC50 (in assay [5]; at GABA transporter 4) were 10.2 µM and 3.55 µM, respectively.

Compound `COc1ccc(C(C/C=C/CN2CCCC(C(=O)O)C2)(c2ccc(OC)cc2)c2ccc(OC)cc2)cc1` (racemic) had a Ki in assay [2] of 34.7 µM. The Activity in assay [3] is 66%. The results for the IC50 (in assay [5]; at GABA transporter 4) were 55 µM and 41.7 µM, respectively.

As to `COc1ccc(C(/C=C/CN2CCCC(C(=O)O)C2)(Cc2ccccc2)c2ccc(OC)cc2)cc1` (racemic), the Activity was found to be 69% in assay [1], 92% in assay [3] and 66% in assay [4]. This compound had a Ki in assay [2] of 4.68 µM. Moreover, the 50% inhibitory concentration (IC50) in assay [5] was 15.8 µM.

In assay [2], `COc1ccc(C(/C=C/CN2CCCC(C(=O)O)C2)(c2ccc(OC)cc2)c2ccc3c(c2)OCO3)cc1` (racemic) had an inhibitory constant (Ki) of 8.71 µM. Besides, in assay [3], the Activity is 53%. Also, the IC50 in assay [5] is 28.2 µM; on GABA transporter 4, 3.16 µM.

`COc1ccc(C(/C=C/CN2CCC[C@H](C(=O)O)C2)(c2ccc(OC)cc2)c2ccc3sccc3c2)cc1` gave a Ki in assay [2] of 7.24 µM. Besides, the IC50 in assay [5] is 14.1 µM; on GABA transporter 4, 2.88 µM.

In the case of `O=C(O)C1CCCN(C/C=C/C(c2ccc3occc3c2)(c2ccc3occc3c2)c2ccc3occc3c2)C1` (racemic), the affinity in assay [2] corresponds to a Ki of 2.14 µM. The figures for the IC50 (in assay [5]; at GABA transporter 4) were 4.07 µM and 5.89 µM, respectively.

In the case of `O=C(O)C1CCCN(C/C=C/C(c2ccc3sccc3c2)(c2ccc3sccc3c2)c2ccc3sccc3c2)C1` (racemic), the Activity was 50% in assay [7] and 54% in assay [6]. The IC50 at GABA transporter 4 is 20 µM.

On to `COc1ccc(C(/C=C/CN2CCCC(C(=O)O)C2)(c2ccc(OC)cc2)c2ccsc2)cc1` (racemic), for which the Ki in assay [2] is 12.9 µM. Besides, the Activity in assay [3] amounted to 53%. Also, the IC50 in assay [5] was 38.9 µM; at GABA transporter 4 it was 7.59 µM.

For `O=C(O)C1CCCN(C/C=C/C(c2ccc3c(c2)OCO3)(c2ccc3c(c2)OCO3)c2ccc3c(c2)OCO3)C1` (racemic), the Ki in assay [2] is 6.31 µM. The IC50 in assay [5] was 17.8 µM; at GABA transporter 4, 15.1 µM.

For the compound `COc1ccc(C(/C=C/CN2CCCC(C(=O)O)C2)(c2ccc(OC)cc2)c2nccs2)cc1` (racemic), the Activity in assay [1] was 49%; in assay [3] it was 78%; in assay [7] it was 65%; in assay [4] it was 82%. This compound showed an inhibition constant (Ki) in assay [2] of 33.9 µM.
